Measured values taken from patent publication US12390457B2, “Stable solutions of immunomodulatory imide compounds for parenteral use” (Starton Therapeutics, Inc., priority 2021, dated 2025).
Converted amounts (≈) assume the structure as drawn. Like-named read-outs stand apart in the source and are kept apart here.

How the values were obtained:
[1] = cited from earlier work
[2] = Forced degradation of LLD solutions (acidic, basic, oxidative; 40° C.) by HPLC; format: physicochemical
Experimental: The primary analytical method for analysis of drug substance in solution is a stability-indicating method, which identifies and quantitates various primary and degradative peaks of the API by HPLC.
In the process of the analytical evaluation, forced degradation of the API in solution is performed to assess how identified chromatography peaks, primary and degradation/impurity are formed.

[3] = Compatibility of lenalidomide with sodium metabisulfite antioxidant; format: physicochemical
[4] = LLD solubility in NMP and in aqueous povidone; format: physicochemical
Experimental: These materials conform to a like-dissolves-like solubility. Acetonitrile was also evaluated as a polar aprotic solvent to assess solubility. Organic volatile solvents were assessed, not to include them into formulation approach for parenteral use, but to ascertain the potential solubility parameter requirements to solubilize the API.
Further, the polymer chain of povidone has specific hydrogen bonding affinity which provides enhanced solubility and protection of the primary amine of lenalidomide, which is most susceptible to oxidation.
Dissolution is usually complete within approximately 15 minutes for volumes of approximately 20 mL. It should be appreciated, however, that larger scale production may require longer dissolution times.

[5] = cited from earlier work; remark: listed apart in the source
[6] = polar aprotic solvent in combination with PVP, in presence of water

## Nc1cccc2c1CN(C1CCC(=O)NC1=O)C2=O (stereo not drawn) [LLD, 3-(4-amino-1-3-dihydro-1-oxo-2H-isoindol-2yl)-2,6-piperidinedione]
[1]
  Solubility of the LLD in solution: < 400 µg/mL
[1]; pH about 6.0 to about 7.0, dependent on storage conditions
  solubility: about 0.2 mg/mL
[1]; physiologically acceptable pH about 3 to about 8
  solubility: no more than 0.4 mg/mL
[2]; 1% PEG400, basic hydrolysis, FIG. 13
  LLD degraded: 100%
[2]; 1% PG, basic hydrolysis, FIG. 14
  LLD degraded: 100%
[2]; 1% PVP K-12, basic hydrolysis, FIG. 15
  Degradation of LLD: 100%
[2]; below pH 4.5
  Total related impurities: negligible total related impurities
[2]; [6]
  Hydrolytic degradation mitigated: > 90%
  Oxidation mitigated: ~100%
[2]; presence of ACN, basic hydrolysis, FIG. 8
  Loss of LLD: 100%
[2]; presence of IPA, basic hydrolysis, FIG. 7
  Loss of LLD: 100%
[3]
  Interaction with sodium metabisulfite as an antioxidant: direct interaction with lenalidomide
[4]; NMP
  Saturation point of LLD in NMP: approximately 30%
  Solubility in NMP: approximately 30 % by weight
[4]; NMP (n-methyl-2-pyrrolidone), organic solvent or mixture, read-out: Solubility in NMP
  solubility: ~300000 µg/mL (≈ 1160 mM)
[4]; aqueous povidone
  Improvement of aqueous solubility by aqueous povidone solvent: 2-3 fold
[4]; aqueous povidone, aqueous with cosolvent or surfactant or cyclodextrin, with povidone, read-out: Aqueous solubility
  solubility: ≤ 800 µg/mL
[4]; aqueous, without povidone, read-out: Aqueous solubility
  solubility: ~200 µg/mL (≈ 0.771 mM)
[5]; T0 upon preparation in standard solutions or formulations
  Total Related Substances by peak area: > 1.5%
[5]; after 48 hours at ICH storage conditions
  Total Related Substances: > 2.5%
[5]; after 48 hours, higher pH ranges such as pH 7.0 PBS
  Total Related Substances: > 10%
